Laboratory results as given in ChEMBL document CHEMBL5360651, “Progress on the Pharmacological Targeting of Janus Pseudokinases” (J Med Chem, 2023).
Blank lines part the entries; values can stand above or below the compound they belong to.

Key:
[1] = target: T1, Non-receptor tyrosine-protein kinase TYK2 (Homo sapiens, UniProt P29597); assay: Inhibition of TYK2 JH2 in human KIT225 cells assessed as reduction of IFNalpha induced STAT1 phosphorylation by AlphaLISA assay; assay type: cell-based
[2] = Inhibition of PDE4 (unknown origin) by HTRF assay; parameters: species or system Homo sapiens
[3] = target: T1, Non-receptor tyrosine-protein kinase TYK2; assay: Inhibition of TYK2 signalling pathway in human PBMC cells assessed as IFN alpha induced p-STAT1 level; assay type: cell-based
[4] = target: T1, Non-receptor tyrosine-protein kinase TYK2; assay: Inhibition of TYK2 signalling pathway in human PBMC cells assessed as IFN alpha induced p-STAT3 level; assay type: cell-based
[5] = target: T1, Non-receptor tyrosine-protein kinase TYK2; assay type: cell-based, Sf9
[6] = target: T1, Non-receptor tyrosine-protein kinase TYK2; assay type: cell-based, Sf9; remark: listed apart in the source
[7] = target: T2, Tyrosine-protein kinase JAK2 (Homo sapiens, UniProt O60674)
[8] = target: T1, Non-receptor tyrosine-protein kinase TYK2; assay: Inhibition of human recombinant N-terminal His-tagged TYK2 (575 to 869 residues) expressed in baculovirus infected Sf9 cells at 1 uM incubated for 30 mins by scintillation method
[9] = target: T3, Inhibitor of nuclear factor kappa-B kinase subunit beta (Homo sapiens) (UniProt O14920); assay: Inhibition of IKKbeta (unknown origin) at 1 uM relative to control
T3 sequence (whole entry): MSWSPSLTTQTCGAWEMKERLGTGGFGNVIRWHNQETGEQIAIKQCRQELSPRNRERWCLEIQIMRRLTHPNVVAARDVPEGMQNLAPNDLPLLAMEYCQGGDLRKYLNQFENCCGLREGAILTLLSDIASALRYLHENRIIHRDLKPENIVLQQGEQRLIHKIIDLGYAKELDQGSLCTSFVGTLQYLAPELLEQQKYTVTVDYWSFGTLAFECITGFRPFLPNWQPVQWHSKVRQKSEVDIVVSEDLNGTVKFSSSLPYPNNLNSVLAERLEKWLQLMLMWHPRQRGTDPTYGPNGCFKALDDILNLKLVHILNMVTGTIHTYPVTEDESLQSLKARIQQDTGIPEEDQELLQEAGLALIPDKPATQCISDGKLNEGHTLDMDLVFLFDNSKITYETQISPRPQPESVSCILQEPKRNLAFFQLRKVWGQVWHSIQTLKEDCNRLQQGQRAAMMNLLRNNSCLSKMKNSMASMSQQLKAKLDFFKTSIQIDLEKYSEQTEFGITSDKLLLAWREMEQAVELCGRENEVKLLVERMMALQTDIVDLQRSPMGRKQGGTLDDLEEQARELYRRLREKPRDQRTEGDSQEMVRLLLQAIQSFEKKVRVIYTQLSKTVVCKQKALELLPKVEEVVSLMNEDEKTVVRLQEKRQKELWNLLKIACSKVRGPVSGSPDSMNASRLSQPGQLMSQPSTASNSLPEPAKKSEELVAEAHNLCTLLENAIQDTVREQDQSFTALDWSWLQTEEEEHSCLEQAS

[10] = Half life in human liver microsomes; assay type: ADME, Microsome
[11] = target: Voltage-gated inwardly rectifying potassium channel KCNH2 (Homo sapiens, UniProt Q12809); assay: Inhibition of hERG by fluorescence polarization method; assay type: toxicity
[12] = target: T4, Tyrosine-protein kinase JAK1 (Homo sapiens, UniProt P23458)
[13] = Inhibition of JAK1 JH2 (unknown origin); parameters: species or system Homo sapiens
[14] = target: Tyrosine-protein kinase JAK2 (Homo sapiens, UniProt O60674, V617F); assay: Binding affinity to JAK2 V617F mutant (unknown origin) assessed as dissociation constant
[15] = target: T2, Tyrosine-protein kinase JAK2; assay: Binding affinity to wild type JAK2 JH2 (unknown origin)
[16] = target: T4, Tyrosine-protein kinase JAK1; remark: listed apart in the source
[17] = target: T5, Tyrosine-protein kinase JAK3 (Homo sapiens, UniProt P52333); assay: Inhibition of JAK3 signaling pathway in human PBMC cells assessed as reduction of IL-2 induced STAT5 phosphorylation; assay type: cell-based
T5 sequence (P52333 whole entry): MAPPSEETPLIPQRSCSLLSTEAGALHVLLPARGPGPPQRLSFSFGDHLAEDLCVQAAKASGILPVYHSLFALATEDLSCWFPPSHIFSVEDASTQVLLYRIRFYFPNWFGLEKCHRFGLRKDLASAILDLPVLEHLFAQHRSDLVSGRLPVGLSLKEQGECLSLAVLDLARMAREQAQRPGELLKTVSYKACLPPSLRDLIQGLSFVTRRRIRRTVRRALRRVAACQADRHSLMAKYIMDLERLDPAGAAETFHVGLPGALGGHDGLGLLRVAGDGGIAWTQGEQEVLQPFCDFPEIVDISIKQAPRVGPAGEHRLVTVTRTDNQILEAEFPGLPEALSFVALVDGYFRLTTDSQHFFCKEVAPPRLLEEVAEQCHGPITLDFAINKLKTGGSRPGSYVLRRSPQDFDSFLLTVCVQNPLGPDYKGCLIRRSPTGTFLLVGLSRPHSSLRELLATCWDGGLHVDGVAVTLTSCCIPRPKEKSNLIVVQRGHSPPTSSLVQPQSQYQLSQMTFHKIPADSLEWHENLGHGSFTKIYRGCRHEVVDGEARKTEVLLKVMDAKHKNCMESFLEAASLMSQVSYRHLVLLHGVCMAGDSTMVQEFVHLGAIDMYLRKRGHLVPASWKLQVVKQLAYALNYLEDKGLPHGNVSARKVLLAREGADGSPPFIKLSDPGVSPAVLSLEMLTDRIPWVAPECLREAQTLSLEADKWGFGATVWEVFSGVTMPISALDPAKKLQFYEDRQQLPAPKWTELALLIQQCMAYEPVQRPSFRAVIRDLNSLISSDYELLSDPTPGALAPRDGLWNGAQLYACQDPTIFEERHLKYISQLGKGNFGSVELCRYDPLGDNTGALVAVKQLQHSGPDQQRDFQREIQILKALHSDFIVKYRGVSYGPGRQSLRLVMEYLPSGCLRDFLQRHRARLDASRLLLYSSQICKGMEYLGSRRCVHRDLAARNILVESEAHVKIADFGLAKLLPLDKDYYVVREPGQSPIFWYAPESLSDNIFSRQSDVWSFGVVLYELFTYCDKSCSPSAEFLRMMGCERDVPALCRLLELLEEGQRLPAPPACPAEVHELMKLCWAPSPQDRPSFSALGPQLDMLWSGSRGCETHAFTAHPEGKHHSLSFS

[18] = Solubility of compound at pH 6.5; assay type: physicochemical; conditions: buffer

T4 sequence (P23458 whole entry): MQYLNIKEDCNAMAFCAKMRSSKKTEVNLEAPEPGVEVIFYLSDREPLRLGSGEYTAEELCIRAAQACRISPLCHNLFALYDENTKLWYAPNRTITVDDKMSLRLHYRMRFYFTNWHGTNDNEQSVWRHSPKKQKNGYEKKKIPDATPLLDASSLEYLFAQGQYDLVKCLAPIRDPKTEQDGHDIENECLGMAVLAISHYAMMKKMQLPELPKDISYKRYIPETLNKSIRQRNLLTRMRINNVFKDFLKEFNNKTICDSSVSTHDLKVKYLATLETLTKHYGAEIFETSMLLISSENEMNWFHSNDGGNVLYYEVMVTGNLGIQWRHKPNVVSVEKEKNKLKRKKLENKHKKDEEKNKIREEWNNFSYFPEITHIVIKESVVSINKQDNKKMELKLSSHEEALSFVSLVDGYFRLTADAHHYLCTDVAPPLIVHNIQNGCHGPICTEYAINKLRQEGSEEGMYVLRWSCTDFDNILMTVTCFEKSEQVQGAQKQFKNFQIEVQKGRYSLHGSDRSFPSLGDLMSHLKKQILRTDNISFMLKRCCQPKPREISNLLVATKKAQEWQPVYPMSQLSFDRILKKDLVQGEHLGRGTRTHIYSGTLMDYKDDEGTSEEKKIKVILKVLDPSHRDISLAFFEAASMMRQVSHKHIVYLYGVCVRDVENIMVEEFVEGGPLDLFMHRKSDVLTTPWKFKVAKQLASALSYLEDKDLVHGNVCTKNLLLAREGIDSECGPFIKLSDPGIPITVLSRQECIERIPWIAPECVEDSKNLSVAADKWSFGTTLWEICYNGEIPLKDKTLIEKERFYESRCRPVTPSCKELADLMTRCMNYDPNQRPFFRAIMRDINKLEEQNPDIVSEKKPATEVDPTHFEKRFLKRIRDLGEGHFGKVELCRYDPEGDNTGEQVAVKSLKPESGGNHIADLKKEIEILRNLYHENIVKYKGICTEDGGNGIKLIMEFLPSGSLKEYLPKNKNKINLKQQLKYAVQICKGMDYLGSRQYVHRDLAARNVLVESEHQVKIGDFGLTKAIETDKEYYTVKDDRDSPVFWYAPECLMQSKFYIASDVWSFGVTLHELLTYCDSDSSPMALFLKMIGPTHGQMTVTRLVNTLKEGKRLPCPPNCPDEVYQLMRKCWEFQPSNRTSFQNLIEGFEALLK
T1 sequence (P29597 whole entry): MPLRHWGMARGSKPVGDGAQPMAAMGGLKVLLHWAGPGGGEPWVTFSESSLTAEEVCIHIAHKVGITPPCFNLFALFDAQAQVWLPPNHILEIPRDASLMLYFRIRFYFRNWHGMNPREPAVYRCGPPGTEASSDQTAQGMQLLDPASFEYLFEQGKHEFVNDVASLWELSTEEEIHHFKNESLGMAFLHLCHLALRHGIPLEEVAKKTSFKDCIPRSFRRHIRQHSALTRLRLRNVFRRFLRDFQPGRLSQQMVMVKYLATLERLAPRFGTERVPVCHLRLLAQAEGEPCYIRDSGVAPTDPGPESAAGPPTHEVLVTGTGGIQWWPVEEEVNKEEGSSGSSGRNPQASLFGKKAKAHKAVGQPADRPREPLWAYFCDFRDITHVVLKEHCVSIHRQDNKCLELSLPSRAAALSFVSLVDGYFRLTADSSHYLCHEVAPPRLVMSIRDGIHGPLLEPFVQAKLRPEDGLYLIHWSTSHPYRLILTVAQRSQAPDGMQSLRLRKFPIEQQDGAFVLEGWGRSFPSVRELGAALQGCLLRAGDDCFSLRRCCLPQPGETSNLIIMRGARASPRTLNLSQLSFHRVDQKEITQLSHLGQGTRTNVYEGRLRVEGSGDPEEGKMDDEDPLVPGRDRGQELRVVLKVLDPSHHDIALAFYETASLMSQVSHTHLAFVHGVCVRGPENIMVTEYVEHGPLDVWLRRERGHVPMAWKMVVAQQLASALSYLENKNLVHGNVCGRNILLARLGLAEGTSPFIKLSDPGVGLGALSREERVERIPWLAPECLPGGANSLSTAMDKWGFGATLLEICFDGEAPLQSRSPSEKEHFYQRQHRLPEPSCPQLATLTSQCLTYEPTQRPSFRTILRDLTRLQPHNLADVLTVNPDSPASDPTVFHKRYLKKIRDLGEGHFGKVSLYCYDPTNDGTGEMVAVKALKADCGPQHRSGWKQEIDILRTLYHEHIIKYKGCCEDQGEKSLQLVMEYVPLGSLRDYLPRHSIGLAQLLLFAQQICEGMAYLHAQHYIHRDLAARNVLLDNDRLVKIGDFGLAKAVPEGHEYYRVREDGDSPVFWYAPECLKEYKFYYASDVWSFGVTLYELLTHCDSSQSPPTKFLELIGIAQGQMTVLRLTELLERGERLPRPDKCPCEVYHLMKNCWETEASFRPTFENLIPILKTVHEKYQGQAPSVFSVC
T2 sequence (O60674 whole entry, the tested form may be a part): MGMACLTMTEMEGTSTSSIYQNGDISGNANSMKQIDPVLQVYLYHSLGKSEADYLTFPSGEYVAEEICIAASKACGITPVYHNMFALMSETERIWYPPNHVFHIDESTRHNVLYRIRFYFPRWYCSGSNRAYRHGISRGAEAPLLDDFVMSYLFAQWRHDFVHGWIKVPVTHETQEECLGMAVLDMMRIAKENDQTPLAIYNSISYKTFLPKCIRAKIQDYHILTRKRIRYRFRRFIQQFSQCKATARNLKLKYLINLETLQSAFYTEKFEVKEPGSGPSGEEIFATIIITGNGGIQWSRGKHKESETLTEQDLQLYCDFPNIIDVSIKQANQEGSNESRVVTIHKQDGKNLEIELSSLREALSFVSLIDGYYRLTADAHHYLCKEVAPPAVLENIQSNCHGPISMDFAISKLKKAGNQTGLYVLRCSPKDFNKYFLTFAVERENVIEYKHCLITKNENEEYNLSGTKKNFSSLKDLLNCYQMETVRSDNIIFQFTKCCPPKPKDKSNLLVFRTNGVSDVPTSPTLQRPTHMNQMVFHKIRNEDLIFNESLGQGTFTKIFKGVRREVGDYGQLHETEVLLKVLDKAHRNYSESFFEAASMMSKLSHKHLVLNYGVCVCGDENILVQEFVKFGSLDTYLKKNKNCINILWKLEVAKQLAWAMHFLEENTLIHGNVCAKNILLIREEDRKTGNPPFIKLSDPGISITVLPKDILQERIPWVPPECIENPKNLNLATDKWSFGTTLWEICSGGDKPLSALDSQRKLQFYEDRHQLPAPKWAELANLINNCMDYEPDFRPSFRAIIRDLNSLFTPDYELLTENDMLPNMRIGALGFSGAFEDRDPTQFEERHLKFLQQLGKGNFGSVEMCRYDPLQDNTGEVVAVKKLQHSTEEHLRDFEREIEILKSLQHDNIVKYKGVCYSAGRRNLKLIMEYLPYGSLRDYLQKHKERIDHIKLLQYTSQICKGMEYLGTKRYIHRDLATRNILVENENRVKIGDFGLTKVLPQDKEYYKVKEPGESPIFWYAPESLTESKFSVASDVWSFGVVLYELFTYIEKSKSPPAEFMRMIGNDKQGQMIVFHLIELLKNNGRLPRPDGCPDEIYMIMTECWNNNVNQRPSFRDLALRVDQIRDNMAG
Chain of Voltage-gated inwardly rectifying potassium channel KCNH2 (Q12809 whole entry): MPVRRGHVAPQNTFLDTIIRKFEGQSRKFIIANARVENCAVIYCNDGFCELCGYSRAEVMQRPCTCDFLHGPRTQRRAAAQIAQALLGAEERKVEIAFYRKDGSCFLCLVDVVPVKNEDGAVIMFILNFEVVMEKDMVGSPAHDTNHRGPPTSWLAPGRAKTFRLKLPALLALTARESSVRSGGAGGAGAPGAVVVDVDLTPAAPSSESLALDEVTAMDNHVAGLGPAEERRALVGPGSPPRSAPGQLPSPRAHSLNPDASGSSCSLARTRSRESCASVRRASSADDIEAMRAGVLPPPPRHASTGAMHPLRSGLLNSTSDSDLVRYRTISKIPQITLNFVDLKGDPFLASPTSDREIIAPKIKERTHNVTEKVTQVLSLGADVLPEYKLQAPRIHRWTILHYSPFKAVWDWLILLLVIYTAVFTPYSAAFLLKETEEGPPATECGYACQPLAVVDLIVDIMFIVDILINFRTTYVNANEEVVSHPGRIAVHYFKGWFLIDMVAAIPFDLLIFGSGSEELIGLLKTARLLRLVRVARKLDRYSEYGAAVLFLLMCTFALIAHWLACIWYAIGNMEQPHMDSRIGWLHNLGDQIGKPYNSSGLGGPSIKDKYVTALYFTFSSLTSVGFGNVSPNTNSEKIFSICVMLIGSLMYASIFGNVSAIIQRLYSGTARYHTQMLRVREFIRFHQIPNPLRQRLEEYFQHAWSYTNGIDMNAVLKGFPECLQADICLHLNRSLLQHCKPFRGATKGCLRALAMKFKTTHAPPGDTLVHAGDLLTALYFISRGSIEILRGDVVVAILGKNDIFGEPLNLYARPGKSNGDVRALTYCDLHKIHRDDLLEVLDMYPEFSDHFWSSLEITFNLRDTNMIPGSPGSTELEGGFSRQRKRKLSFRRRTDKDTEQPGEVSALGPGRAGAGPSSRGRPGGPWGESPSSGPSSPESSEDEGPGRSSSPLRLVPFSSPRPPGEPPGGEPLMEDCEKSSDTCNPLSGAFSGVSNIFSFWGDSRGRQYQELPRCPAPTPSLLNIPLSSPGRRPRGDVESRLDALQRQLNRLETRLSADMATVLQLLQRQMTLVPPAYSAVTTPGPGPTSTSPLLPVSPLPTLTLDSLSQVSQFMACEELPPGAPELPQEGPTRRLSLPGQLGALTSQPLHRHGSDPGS
Chain of Tyrosine-protein kinase JAK2 (Homo sapiens, UniProt O60674, V617F) (O60674 whole entry V617F): as the sequence (O60674 whole entry, the tested form may be a part) above, with V617F counted along it

Structure (SMILES): CS(=O)(=O)N1CC[C@H](C#CC(=O)N2CCC[C@@H](c3ccc(Cl)c(Cl)c3)C2)C1
IC50 [3]: 32 nM
IC50 [4]: 46 nM

Structure (SMILES): O=c1cc(-c2ccccc2)nc2c(-c3cccc([N+](=O)[O-])c3)c(C(F)(F)F)[nH]n12
IC50 [5]: 9700 nM
IC50 [6]: 50000 nM
IC50 [7]: 14000 nM

Structure (SMILES): CNc1nc2sc(-c3cccc([C@@H](C)NC(=O)c4ccccc4S(C)(=O)=O)c3)nc2c2c1ncn2C
inhibition [8]: 99%
inhibition [9]: > 96%

Structure (SMILES): CNC(=O)c1nnc(NC(=O)C2CC2)c2[nH]c(-c3ccc(N)cc3OC)cc12
half-life [10]: > 2.32 h
IC50 [11]: > 30000 nM

Structure (SMILES): Nc1nc(CSc2nnc(NCC3CCCC3)s2)nc(Nc2ccc(F)cc2)n1
Kd [14]: 65000 nM
Kd [15]: 149000 nM

Structure (SMILES): c1nc2nc(Nc3ccc(N4CCOCC4)cc3)nc(NC3CCCCC3)c2[nH]1 [REVERSINE]
IC50 [12]: 350 nM
IC50 [16]: 350 nM

Structure (SMILES): [2H]C([2H])([2H])NC(=O)c1nnc(NC(=O)C2CC2)cc1Nc1cccc(-c2ncn(C)n2)c1OC [DEUCRAVACITINIB]
IC50 [17]: 3 nM
half-life [10]: > 2 h
solubility [18]: < 1 µg/mL

Structure (SMILES): CNC(=O)c1cnc(Nc2ccc(C#N)cn2)cc1Nc1cccc(-c2ncn(C)n2)c1OC
IC50 [5]: 0.3 nM

Results, then the compound that gave them:

IC50 [1]: 63 nM
Structure (SMILES): CNC(=O)c1cnc(Nc2ccc(F)cn2)cc1Nc1ccccc1S(C)(=O)=O

IC50 [2]: > 2000 nM
IC50 [1]: 37 nM
Structure (SMILES): NC(=O)c1ccccc1Nc1cc(Nc2ccc(F)cn2)ncc1C(N)=O

IC50 [12]: 60 nM
Structure (SMILES): O=C(Nc1c[nH]nc1-c1nc2cc(CN3CCOCC3)ccc2[nH]1)NC1CC1 [AT-9283]

IC50 [13]: 658 nM
Structure (SMILES): CC(C)CCN1c2nc(Nc3cc(F)c(O)c(F)c3)ncc2N(C)C(=O)C1C (stereo not drawn)

IC50 [13]: 123 nM
Structure (SMILES): CC(C)CCN1c2nc(Nc3cc(F)c(O)c(F)c3)ncc2N(C)C(=O)C1(C)C
